Data on seven compounds can be found in US4496591A, “Insecticidal bis-carbamate sulfides” (priority 1981, dated 1985).

Holding throughout (assay type): in vivo
Data set [1] concerns bean aphid (Aphis fabae Scop.). The data set is described as follows: Bean aphid foliage spray test. Also noted: key: A: excellent control; B: partial control; C: no control at 500 ppm. Particulars: 500 parts per million, 24 hour. Here is the method: (§1) Suspensions of the test compounds were prepared by dissolving one gram of compound in 50 milliliters of acetone in which had been dissolved 0.1 gram (10 percent of the weight of compound) of an alkylphenoxy polyethoxyethanol surfactant, as an emulsifying or dispersing agent. The resulting solution was mixed into 150 milliliters of water to give roughly 200 milliliters of a suspension containing the compound in finely divided form. The thus-prepared stock suspension contained 0.5 percent by weight of compound. The concentrations in parts per million by weight employed in the tests described hereinbelow were obtained by appropriate dilutions of the stock suspension with water. The test procedures were as follows:
Adults and nymphal stages of the bean aphid (Aphis fabae Scop.) reared on potted dwarf nasturtium plants at 68°-70° F. and 50±5 percent relative humidity, constituted the test insects. For testing purposes, the number of aphids per pot were standardized to 100-150 by trimming plants containing excess aphids.
The test compounds were formulated by diluting the stock suspension with water to give a suspension containing 500 parts of test compound per million parts of final formulation.
The potted plants (one pot per compound tested) infested with 100-150 aphids, were placed on a revolving turntable and sprayed with 100-110 milliliters of test compound formulation by use of a DeVilbiss spray gun set at 40 psig. air pressure. This application, which lasted 25 seconds, was sufficient to wet the plants to run-off. As a control, 100-110 milliliters of a water-acetone-emulsifier solution containing no test compound was also sprayed on infested plants. After spraying, the pots were placed on their sides on a sheet of white standard mimeograph paper which had been previously ruled to facilitate counting. Temperature and humidity in the test room during the 24 hour holding period were 68°-70° F. and 50±5 percent, respectively. Aphids which fell onto the paper and were unable to remain standing after being uprighted were considered dead. Aphids remaining on the plants were observed closely for movement and those which were unable to move the length of the body upon stimulation by prodding were considered dead.
(§2) In these tests the pesticidal activity of the compounds at the indicated dosage rate against aphid, Southern Armyworm, Bean Beetle and housefly was rated as follows: […]

The test system of data set [2] is southern armyworm (Spodoptera eridania, (Cram.)) larvae. Put plainly: Southern armyworm leaf spray bait test. Also noted: key: A: excellent control; B: partial control; C: no control at 500 ppm. Particulars: 500 parts per million, three days. Here is the method:
as §1
Larvae of the southern armyworm (Spodoptera eridania, (Cram.)), reared on Tendergreen bean plants at a temperature of 80±5° F. and a reative humidity of 50±5 percent, constituted the test insects.
The test compounds were formulated by diluting the stock suspension with water to give a suspension containing 500 parts of test compound per million parts of final formulation. Potted Tendergreen bean plants of standard height and age were placed on a revolving turntable and sprayed with 100-110 milliliters of test compound formulation by use of a DeVilbiss spray gun set at 40 psig air pressure. This application, which lasted 25 seconds, was sufficient to wet the plants to run-off. As a control, 100-110 milliliters of a water-acetone-emulsifier solution containing no test compound were also sprayed on infested plants. When dry, the paired leaves were separated and each one was placed in a 9 centimeter Petri dish lines with moistened filter paper. Five randomly selected larvae were introduced into each dish and the dishes were closed. The closed dishes were labeled and held at 80°-85° F. for three days. Although the larvae could easily consume the whole leaf within twenty-four hours, no more food was added. Larvae which were unable to move the length of the body, even upon stimulation by prodding, were considered dead.
as §2

Data set [3] has as its system Mexican bean beetle (Epilachna varivestis, Muls.) larvae. Put plainly: Mexican bean beetle leaf spray test. Also noted: key: A: excellent control; B: partial control; C: no control at 500 ppm. Conditions: 500 parts per million, fourth instar larvae, three days. Here is the method:
as §1
Fourth instar larvae of the Mexican bean beetle (Epilachna varivestis, Muls.), reared on Tendergreen bean plants at a temperature of 80±5° F. and 50±5° F. percent relative humdity, were the test insects.
The test compounds were formulated by diluting the stock suspension with water to give a suspension containing 500 parts of test compound per million parts of final formulation. Tendergreen bean plants of standard height and age were placed on a revolving turntable and sprayed with 100-110 milliliters of test compound formulation by use of a DeVilbiss spray gun set at 40 psig air pressure. This application, which lasted 25 seconds, was sufficient to wet the plants to run-off. As a control, 100-110 milliliters of a water-acetone-emulsifier solution containing no test compound was also sprayed on infested plants. When dry, the paired leaves were separated and each was placed in a 9 centimeter Petri dish lined with moistened filter paper. Five randomly selected larvae were introduced into each dish, and the dishes were closed. The closed dishes were labeled and held at a temperature of 80±5° F., for three days. Although the larvae could easily consume the leaf within 24 to 48 hours, no more food was added. Larvae which were unable to move the length of the body, even upon stimulation, were considered dead.
as §2

For data set [4], the system named is house flies (Musca domestica, L.). The data set is described as follows: Fly bait test. Also noted: key: A: excellent control; B: partial control; C: no control at 500 ppm. Conditions: 500 parts per million, sugar bait, twenty-four hours. Here is the method: as §1
Four to six day old adult house flies (Musca domestica, L.), reared according to the specifications of the Chemical Specialties Manufacturing Association (Blue Book, McNair-Dorland Co., N.Y. 1954; pages 243-244, 261) under controlled conditions of 80±5° F. and 50±5 percent relative humidity, were the test insects. The flies were immobilized by anesthetizing them with carbon dioxide. Twenty-five immobilized individuals, males and females, were transferred to a cage consisting of a standard food strainer about five inches in diameter which was inverted over a wrapping-paper-covered surface. The test compounds were formulated by diluting the stock suspension with a 10 percent (by weight) sugar solution to give a suspension containing 500 parts of test compound per million parts of final formulation, by weight. Ten milliliters of the test formulation were added to a souffle cup containing a one-inch square of an absorbent cotton pad. This bait cup was introduced and centered on the blotting paper under the food strainer prior to admitting the anesthetized flies. The caged flies were allowed to feed on the bait for twenty-four hours, at a temperature of 80±5° F. and at a relative humidity of 50±5 percent.
as §2

The test system of data set [5] is egg of the Southern armyworm (Spodoptera eridania (Cram.)). Put plainly: Southern armyworm ovicide test. Also noted: key: A: excellent control; B: partial control; C: no control at 500 ppm. Conditions: 500 parts per million, egg dip, four days. Here is the method: as §1
The test organism was the egg of the Southern armyworm (Spodoptera eridania (Cram.)) as obtained from adults reared on Tendergreen bean plants at a temperature of 80±5° F. and a relative humidity of 50±5 percent. The eggs were laid on freezer paper (Marlon 717, Copco paper) and then cut into small sections containing one or two egg masses.
The test compounds were formulated by diluting the stock suspension with water to give a suspension containing 500 parts of test compound per million parts of final formulation. The egg masses were then dipped until they were thoroughly wet (5-10 seconds). They were then placed on a paper towel face up and were allowed to dry for 15-30 minutes. The dry eggs were placed in a 15×60 mm petri dish containing a cotton dental wick saturated with a 5 percent sodium chloride solution to maintain a high level of humidity. The closed dishes were labeled and held at a temperature of 80±5° F. for four days. Larvae that emerged from the egg, even if dead at the time of observation, were recorded as hatched.
as §2

The test system of data set [6] is root-knot nematode, Meloidogyne incognita var. acrita. Put plainly: Nematocide test. Conditions: 3.33 m.g. per jar, cucumber, approximately 3 weeks. Also noted: key: 1: severe galling, equal to untreated plants; 2: moderate galling; 3: light galling; 4: very light galling; 5: no galling, perfect control. Here is the method: The test organism used was the infective migratory larvae of the root-knot nematode, Meloidogyne incognita var. acrita, reared in the greenhouse on roots of cucumber plants. Infected plants were removed from the culture, and the roots were chopped very finely. A small amount of this inoculum was added to a pint jar containing approximately 180 cc. of soil. The jars were capped and incubated for one week at room temperature. During this period eggs of the nematode were hatched, and the larval forms migrated into the soil.
Ten ml. of the test formulation were added to each of the two jars for each dosage tested. Following the addition of chemical, the jars were capped, and the contents thoroughly mixed on a ball mill for […].
The test compounds were formulated by a standard procedure of solution in acetone addition of an emulsifier, and dilution with water. Primary screening tests were conducted at 3.33 m.g. of the test compound per jar.
The jars were left capped at room temperature for a period of 48 hours, and the contents then transferred to 3 inch pots. Subsequently, the pots were seeded to cucumber as an indicator crop and placed in the greenhouse where they were cared for in the normal fashion for approximately 3 weeks.
The cucumber plants were then taken from the pots, the soil removed from the roots, and the amount of galling visually rated.
In the test for activity against nematodes activity was rated as follows: […]

In data set [7] the test system is housefly adults (Musca domestica). Put plainly: Comparative residual effect in soil. Particulars: for Residual effect in soil (mortality), 0 weeks / Residual Activity (weeks): soil concentration four times LD50, housefly; for Residual effect in soil (mortality), 0 weeks: 24 hours; for Residual effect in soil (mortality), 1 week / Residual effect in soil (mortality), 4 weeks: soil concentration four times LD50, 25° C., 90% relative humidity; for Residual effect in soil (mortality), 1 week: 10080 min; for Residual effect in soil (mortality), 4 weeks: 40320 min. Here is the method: Selected species of the new compounds were evaluated for their residual pesticidal activity in soil. […] The residual activity test were conducted using five to seven-day old housefly adults (Musca domestica).
The soil mixture used was one part agricultural soil and three parts sand. The agricultural soil was stored in plastic bags in a freezer, immediately after removal from the field. This was done to reduce microbial multiplication. Two weeks prior to use, the soil was thawed and held at room temperature to allow microbial population to equilibrate. The sand and soil were sifted to remove clumps and debris and were then blended by rolling on a roller mill in a closed metal container. The moisture level was adjusted to 15% by weight.
The concentration in the soil of the compound to be tested was four times the amount (in parts per million) necessary to achieve a mortality rate of 50% on contact with the soil (LD50). This is in accordance with the procedure developed by C. R. Harris of the Research Institute, Canadian Department of Agriculture, London, Ontario. Such procedure is disclosed in "Biological Activity of Chloropyrifos, Chlorpyrifor-Methyl, Phorate, and Counter® in Soil", The Canadian Entomologist, Vol. 109, pp. 1115-1120 (August 1977); and in "Laboratory Studies on the Persistance of Biological Activity of Some Insecticides in Soils", Journal of Economic Entomology, Vol. 62, No. 6, pp. 1437-1441 (December 1969).
An appropriate amount of compound was dissolved in an acetone--Triton solution and was diluted with water. Five mililiters of the formulated chemical was applied to four ounces of soil mixture and rolled in a 16-ounce glass jar to blend the compound evenly with the soil. Ten mililiters of granular cane sugar was then mixed thoroughly with the treated soil in an eight-ounce plastic container.
Twenty-five housefly adults, anesthetized with CO2, were then transferred to the soil and were covered with a perforated plastic lid. The test containers were held for 24 hours in a constant environment at a temperature of 80±5° F. and a relative humidity of […]. Mortality was based on the ability of the fly to move in a normal manner without spinning.
The above process was repeated on treated soil which had been incubated at 25° C. and 90% relative humidity for 1, 4, 6 and 8 weeks after initial exposure. This was necessary because the soil is incubated without sugar, sugar being added at the time of reinfestation. For this reason, appropriate volumes of soil had to be treated at the start of the soil test to last for the expected residual period.

As for `CSC(C)=NOC(=O)N(C)SN(C)C(=O)Oc1ccc(C(=O)O)cc1` [Compound 4, S-Methyl-N-[[[N'-[[N"-[(4-hydroxycarbonylphenoxy)carbonyl]-N"-methylaminosulfenyl]]-N'-methylcarbamoyloxy]]]thioacetimidate], the “Aphids, pesticidal activity rating” value in data set [1] was “B”. Further, the “Southern Armyworm, pesticidal activity rating” value in data set [2] is listed as “A”. Moreover, in data set [3], the “Mexican Bean Beetle, pesticidal activity rating” value (“Mexican Bean Beetle” below) was “A”. Moreover, the “Housefly, pesticidal activity rating” value in data set [4] is “A”.
In the case of `CSC(C)=NOC(=O)N(C)SN(C)C(=O)Oc1ccc(C(C)=O)c(C)c1` [Compound 7], the “Aphids, pesticidal activity rating” value in data set [1] is “A”. Further, in data set [2], the “Southern Armyworm, pesticidal activity rating” value was “A”. Moreover, the “Mexican Bean Beetle” value in data set [3] was “A”. Besides, in data set [5], the “Southern Armyworm (egg), pesticidal activity rating” value (from here on “Southern Armyworm (egg)”) is on record as “A”. Further, the “Housefly, pesticidal activity rating” value in data set [4] is “A”. In addition, the “Root-Knot Nematode, galling rating” value in data set [6] was determined as 5.
For `CSC(C)=NOC(=O)N(C)SN(C)C(=O)Oc1ccc(C(=O)c2ccccc2)cc1` [Compound 6], the “Aphids, pesticidal activity rating” value in data set [1] is “A”. In addition, in data set [2], the “Southern Armyworm, pesticidal activity rating” value is reported as “A”. Further, the “Mexican Bean Beetle” value in data set [3] is listed as “A”. Further, in data set [5], the “Southern Armyworm (egg)” value is given as “A”. In addition, the “Housefly, pesticidal activity rating” value in data set [4] is recorded as “A”. Further, the “Root-Knot Nematode, galling rating” value in data set [6] was 4.
Consider `CSC(C)=NOC(=O)N(C)SN(C)C(=O)Oc1ccccc1C=O` [Compound 8], for which the “Aphids, pesticidal activity rating” value in data set [1] was “A”. In addition, in data set [2], the “Southern Armyworm, pesticidal activity rating” value was “A”. Also, in data set [3], the “Mexican Bean Beetle” value is “A”. For the same compound, the “Southern Armyworm (egg)” value in data set [5] is on record as “B”. The “Housefly, pesticidal activity rating” value in data set [4] was “A”. Also, the “Root-Knot Nematode, galling rating” value in data set [6] was found to be 4.
In the case of `CSC(C)=NOC(=O)N(C)SN(C)C(=O)Oc1cc(C)c(C)c(C)c1` [B], in data set [7], the “Residual effect in soil (mortality), 0 weeks” value (“Residual effect … 0 weeks” below) is given as 100; the “Residual effect in soil (mortality), 1 week” value (shortened to “Residual effect … 1 week”) was found to be 100; the “Residual effect in soil (mortality), 4 weeks” value (“Residual effect … 4 weeks” below) is given as 0; the “Residual Activity (weeks)” value was “less than 4 weeks”.
Turning to `CSC(C)=NOC(=O)N(C)SN(C)C(=O)Oc1cccc(C)c1` [A], in data set [7], the “Residual effect … 0 weeks” value was 100; the “Residual effect … 1 week” value was found to be 100; the “Residual effect … 4 weeks” value is 23; the “Residual Activity (weeks)” value is “less than 4 weeks”.
Turning to `CNC(=O)ON=C(C)SC` [Methomyl, methyl N[[(methylamino)carbonyl]oxy]ethanimidothioate], in data set [7], the “Residual effect … 0 weeks” value was 100; the “Residual effect … 1 week” value was 100; the “Residual effect … 4 weeks” value was determined as 15; the “Residual Activity (weeks)” value is listed as “less than 4 weeks”.
